Results as given in ChEMBL document CHEMBL3137667, “[Drug-induced liver injury; fourteenth updated edition of the bibliographic database of liver injuries and related drugs]” (Gastroenterol Clin Biol, 2004).

How the values were obtained:
[1] = human
[2] = Times to onset, minimal and maximal, observed in the indexed observations. [column 'DELAI' in source]; conditions: human
[3] = human; remark: listed apart in the source
[4] = human; remark: listed apart in the source
[5] = human; remark: listed apart in the source
[6] = Highest frequency of acute liver toxicity observed during clinical trials, expressed as a percentage. [column '% AIGUE' in source]; conditions: human
[7] = human; remark: listed apart in the source
[8] = human; remark: listed apart in the source
[9] = human; remark: listed apart in the source
[10] = human, serum
[11] = human, serum, 4383 h
[12] = Highest frequency of moderate liver toxicity observed during clinical trials, expressed as a percentage. [column '% BIOL' in source]; conditions: human
[13] = human; remark: listed apart in the source
[14] = human; remark: listed apart in the source
[15] = human, serum; remark: listed apart in the source
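For Hepatotoxicity (association with vascular disease) in this document: count of indexed literature references reporting vascular liver injury in humans, e.g. peliosis hepatitis, hepatic veno-occlusive disease or Budd-Chiari syndrome.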
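For Hepatotoxicity (benign tumour) in this document: value is a count of indexed literature references citing a benign tumour confirmed by histopathology.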
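For Hepatotoxicity (choleostasis) in this document: human cholestatic liver injury, shown by histopathology or by peak ALT or AST elevation over alkaline phosphatase ratio below 2, value counts indexed literature reports.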
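For Hepatotoxicity (chronic liver disease) in this document: chronic liver injury confirmed by histopathology or persistently raised serum aminotransferase activity beyond 6 months, value given as the count of indexed literature references.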
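For Hepatotoxicity (cirrhosis) in this document: value is a count of indexed literature references reporting cirrhosis confirmed by histopathology.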
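For Hepatotoxicity (cytolytic) in this document: human cytolytic liver injury, shown by histopathology or by a ratio above 5 of peak ALT or AST elevation to alkaline phosphatase elevation, value counts indexed references.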
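For Hepatotoxicity (granulomatous hepatitis) in this document: value is a count of indexed literature references reporting granulomatous liver disease confirmed by histopathology.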
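For Hepatotoxicity (malignant tumour) in this document: malignant tumour confirmed by histopathology, value gives the count of indexed literature references reporting it.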
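For Hepatotoxicity (severe hepatitis) in this document: human clinical data: severe hepatitis, meaning potentially life-threatening liver failure or clinically observed cases, the value counts how many indexed literature references report it.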
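For Hepatotoxicity (steatosis) in this document: steatosis confirmed by histopathology, value is the count of indexed references.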

SMILES | Hepatotoxicity (cytolytic) [1] | Hepatotoxicity (time to onset) [2] | Hepatotoxicity (severe hepatitis) [3] | Hepatotoxicity (granulomatous hepatitis) [4] | Hepatotoxicity (malignant tumour) [5] | Hepatotoxicity (acute) [6] [%] | Hepatotoxicity (benign tumour) [7] | Hepatotoxicity (cirrhosis) [8] | Hepatotoxicity (choleostasis) [9] | Hepatotoxicity (acute) [10] | Hepatotoxicity (chronic liver disease) [11] | Hepatotoxicity (moderate) [12] [%] | Hepatotoxicity (association with vascular disease) [13] | Hepatotoxicity (steatosis) [14] | Hepatotoxicity (moderate) [15]
O=[As](O)(O)c1ccc(NCCNc2ccc([As](=O)(O)O)cc2)cc1 [DIFETARSONE] | 2 | 2 days - 3 weeks | 0 | 0 | 0 | 0 | 0 | 0 | 2 | 2 | 0 | 6 | 0 | 0 | 1
NC(=O)CC[C@@H]1NC(=O)[C@H](Cc2ccccc2)NC(=O)[C@H](Cc2ccc(O)cc2)NC(=O)CCSSC[C@@H](C(=O)N2CCC[C@H]2C(=O)N[C@H](CCCN=C(N)N)C(=O)NCC(N)=O)NC(=O)[C@H](CC(N)=O)NC1=O [DESMOPRESSIN] | 0 | 5 days - 4 weeks | 0 | 0 | 0 | 0 | 0 | 0 | 0 | 0 | 0 | 20 | 0 | 0 | 2
CCn1cc(C(=O)O)c(=O)c2cc(F)c(N3CCNCC3)nc21 [ENOXACIN] | 0 | 9 days | 0 | 0 | 0 | 0 | 0 | 0 | 1 | 1 | 0 | 3.3 | 0 | 0 | 6
COc1ccc(CN2CCNCC2)c(OC)c1OC [TRIMETAZIDINE] | 0 | 2 weeks | 0 | 0 | 0 | 0 | 0 | 0 | 1 | 1 | 0 | 0 | 0 | 0 | 0
C[C@H](O)C(=O)Nc1c(I)c(C(=O)NC(CO)CO)c(I)c(C(=O)NC(CO)CO)c1I [IOPAMIDOL] | 1 | 0.021 days | 1 | 0 | 0 | 0 | 0 | 0 | 0 | 1 | 0 | 0 | 0 | 0 | 0
CN(C)[C@@H]1C(O)=C(C(=O)NCNCCCC[C@H](N)C(=O)O)C(=O)[C@@]2(O)C(O)=C3C(=O)c4c(O)cccc4[C@@](C)(O)[C@H]3C[C@@H]12 [LYMECYCLINE] | 1 | 2.4 years | 0 | 0 | 0 | 0 | 0 | 0 | 0 | 1 | 0 | 0 | 0 | 0 | 0
NCC(CC(=O)O)c1ccc(Cl)cc1 (stereo not given) [BACLOFEN] | 1 | 3 weeks - 2 months | 0 | 0 | 0 | 0 | 0 | 0 | 1 | 3 | 0 | 0 | 0 | 0 | 1
CCC(=O)O[C@@H]1CC(=O)O[C@H](C)C/C=C/C=C/[C@H](O)[C@H](C)C[C@H](CC=O)[C@H](O[C@@H]2O[C@H](C)[C@@H](O[C@H]3C[C@@](C)(O)[C@@H](OC(=O)CC)[C@H](C)O3)[C@H](N(C)C)[C@H]2O)[C@H]1OC [MIDECAMYCIN] | 1 | 1 days | 1 | 0 | 0 | 0 | 0 | 0 | 0 | 1 | 0 | 2.3 | 0 | 0 | 3
